Measured values reported in EP0294940B1, “Pharmaceutical compositions” (FISONS plc, priority 1987, dated 1988).

Test system: adenosine monophosphate induced bronchoconstriction
Assay: Attenuation of adenosine monophosphate (AMP) induced bronchoconstriction (Example E)
Assay type: in vivo, Atopic healthy volunteers
Conditions: AMP dose giving a 40% reduction in pEFR, pretreatment inhaled for five minutes from a Wright Nebuliser
Experimental: Effect of active ingredients A and B, separately and in combination in attenuating adenosine monophosphate induced bronchoconstriction
Atopic healthy volunteers were selected for the study. Prior to the administration of pretreatment, baseline values of forced expiratory volume in one second (FEV₁), partial expiratory flow rate (pEFR) and maximum expiratory flow rate (mEFR) were measured. Measurement was made on at least three occasions or until the readings were stable (less than 5% variation). On each occasion the pretreatment was inhaled for five minutes from a Wright Nebuliser (operating at a flow rate of 7 litres per minute) through the mouth during tidal breathing.
Prior to the commencement of adenosine monophosphate (AMP) challenge FEV₁, pEFR and mEFR were measured. The AMP challenge was performed on each study day by giving doubling doses of AMP, each inhaled for two minutes, from either a Wright Nebuliser (operating at a flow rate of 6.5 litres per minute) or an Acorn Nebuliser (operating at a flow rate of 5.5 litres per minute) until a reduction in pEFR of greater than 40% occurs. The nebuliser chosen for each subject was the same throughout the study. AMP was given in a 1 mg/ml-256 mg/ml concentration range, the diluent being physiological saline. Successive doses were administered at 5 minute intervals. Partial expiratory flow rates were measured at 0.5 and 2.5 minutes after each AMP dose. The dose giving a 40% (PD₄₀) reduction in pEFR was determined by interpolation from a log dose response curve.
The results given in Table 1 were obtained using the procedure of Example E in four volunteers. Ingredient A was nedocromil sodium administered as a 0.5% w/v aqueous solution; ingredient B was atropine methonitrate administered as a 0.2% w/v aqueous solution. The combination was an aqueous solution containing 0.5% w/v nedocromil sodium and 0.2% w/v atropine methonitrate.

`CCCc1c2oc(C(=O)O)cc(=O)c2cc2c(=O)cc(C(=O)O)n(CC)c12` [Ingredient A, nedocromil sodium] was tested. Which PD40 (Volunteer 1) did it give?
Its PD40 is 43 mg/mL.

And the PD40 (Volunteer 2)?
The PD40 was 32 mg/mL.

What about the PD40 (Volunteer 3) of the same molecule?
Its PD40 is 17 mg/mL.

What about the PD40 (Volunteer 4) of the same molecule?
The PD40 was 27 mg/mL.

Which PD40 (Volunteer 1) does the source give for `C[N+]1(C)[C@@H]2CC[C@H]1C[C@@H](OC(=O)C(CO)c1ccccc1)C2` (some centres unmarked) [Ingredient B, atropine methonitrate] here?
The PD40 was 42 mg/mL.

What about the PD40 (Volunteer 2) of the same molecule?
Its PD40 is 23 mg/mL.

What about the PD40 (Volunteer 3) of the same molecule?
Its PD40 is 12 mg/mL.

What about the PD40 (Volunteer 4) of the same molecule?
The PD40 was 3.4 mg/mL.
